According to patent US20230302150A1, “ANTIBODY-TLR AGONIST CONJUGATES, METHODS AND USES THEREOF” (Ambrx, Inc., priority 2020, published 2023):
Where two headings read alike, the source gives them in different places.

Tests used:
[1] = tested on: SKBR3 HER2 high expressing tumor cell line / RAW-Blue cells; experiment: RAW-Blue co-culture assay with SKBR3 tumor cells (HER2 ISACs); format: cell-based, human
Description: RAW-Blue™ cells (Invivogen, San Diego, CA) were co-cultured with human tumor cells with different levels of HER2 expression level at 1:1 E:T ratio with total number of 1 million cells per well in the 96 wells plate. Different concentration of small molecule TLR7 agonist and conjugated ISACs, (Immune Stimulating Antibody Conjugates), were added to the co-culture cell medium. After 24 h incubation, the levels of NF-kB-induced SEAP from the RAW-Blue™ cells were determined by Quanti-Blue detection reagents (Invivogen, San Diego, CA) with readings at OD 655 nm. The dose-response curves were generated using Prism Software.

[2] = target: T1, hTLR7 (Homo sapiens, UniProt Q9NYK1); experiment: HEK-Blue hTLR7 reporter assay (NF-kB-induced SEAP, Quanti-Blue); format: cell-based
T1 construct: expressed in transfected cells; host or cells: HEK-Blue hTLR7 reporter cell line
T1 sequence (Q9NYK1 27-1049): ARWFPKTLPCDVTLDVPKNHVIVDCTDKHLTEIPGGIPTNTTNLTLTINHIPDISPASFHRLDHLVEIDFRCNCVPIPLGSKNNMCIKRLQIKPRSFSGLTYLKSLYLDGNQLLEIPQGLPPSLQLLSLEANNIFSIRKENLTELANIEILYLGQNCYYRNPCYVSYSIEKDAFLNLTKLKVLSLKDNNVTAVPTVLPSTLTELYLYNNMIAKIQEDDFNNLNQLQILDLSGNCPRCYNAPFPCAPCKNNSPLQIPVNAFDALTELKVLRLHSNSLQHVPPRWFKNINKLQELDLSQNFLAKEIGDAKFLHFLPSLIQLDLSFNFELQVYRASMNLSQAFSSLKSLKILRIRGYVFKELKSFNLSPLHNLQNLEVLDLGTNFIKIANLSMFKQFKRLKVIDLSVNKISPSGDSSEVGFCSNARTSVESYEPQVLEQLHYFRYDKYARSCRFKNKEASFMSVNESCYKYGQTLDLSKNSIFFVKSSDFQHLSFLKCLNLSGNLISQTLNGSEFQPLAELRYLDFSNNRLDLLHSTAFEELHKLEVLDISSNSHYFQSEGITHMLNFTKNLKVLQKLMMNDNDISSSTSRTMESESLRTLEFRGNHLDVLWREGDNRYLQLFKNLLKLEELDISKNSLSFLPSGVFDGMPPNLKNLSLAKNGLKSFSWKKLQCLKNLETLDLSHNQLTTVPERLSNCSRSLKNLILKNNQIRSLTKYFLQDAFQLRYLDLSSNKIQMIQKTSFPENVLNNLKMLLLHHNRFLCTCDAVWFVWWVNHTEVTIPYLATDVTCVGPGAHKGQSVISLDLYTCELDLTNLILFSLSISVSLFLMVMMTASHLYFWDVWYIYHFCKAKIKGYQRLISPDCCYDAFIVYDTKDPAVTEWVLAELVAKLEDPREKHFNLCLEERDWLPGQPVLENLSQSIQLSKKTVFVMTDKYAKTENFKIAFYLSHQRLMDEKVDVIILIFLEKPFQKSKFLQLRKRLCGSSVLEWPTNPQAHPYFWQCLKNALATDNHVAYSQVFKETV
Description: HEK-Blue™ hTLR7 cells were incubated in HEK-Blue™ Detection medium and stimulated with increasing concentrations of TLR7 or TLR8 or TLR7/8 agonists. […] The EC50 was determined from dose-response curve using Prism Software.

[3] = Table 12, TLR7 agonists attached to a linker, read-out: TLR Agonist Payload + Linkers EC50
[4] = Table 15, drug linker, read-out: TLR Agonist + Linker (DL) - EC50
[5] = Table 15, pAF containing final metabolite, read-out: TLR Agonist + Linker + nnAA (DL-pAF) - EC50
[6] = Table 19, TLR7, drug-linkers with PEG shielding, read-out: EC50
[7] = Table 11, TLR7 activities, read-out: EC50

`CCCCOc1nc(N)c2[nH]c(=O)n(Cc3ccc(CN4CCC(C5CCN(C(=O)CON)CC5)CC4)cc3)c2n1` [AXC-901, 6-amino-9-(4-((1′-(2-(aminooxy)acetyl)-4,4′-bipiperidin-1-yl)methyl)benzyl)-2-butoxy-7H-purin-8(9H)-one] was tested, and the “tumor dependent ISAC activity” value [1] was “highest HER2 dependent TLR7 activities”, the “TLR7 activity (comparison in words)” value [2] was “highest potency among different payload linkers” and the EC50 ([2]; Table 13, TLR7, read-out: EC50) was 48 nM.
With `CCCCOc1nc(N)c2[nH]c(=O)n(Cc3ccc(CN4CCC(CCNC(=O)CON)CC4)cc3)c2n1` [AXC-879, N-(2-(1-(4-((6-amino-2-butoxy-8-oxo-7H-purin-9(8H)-yl)methyl)benzyl)piperidin-4-yl)ethyl)-2-(aminooxy)acetamide] the “tumor dependent ISAC activity” value [1] was “highest HER2 dependent TLR7 activities”, the “TLR7 activity (comparison in words)” value [2] was “highest potency among different TLR-agonist (payload) linkers” and the EC50 [2, 3] was 151 nM. For the same compound, the EC50 [2, 4] was 151 nM and the EC50 [2, 5] was 90 nM.
`CCCCOc1nc(N)c2[nH]c(=O)n(Cc3ccc(CN4CCC(CCNC(=O)[C@H](Cc5ccc(O[C@@H]6O[C@H](CO)[C@@H](O)[C@H](O)[C@H]6O)cc5)NC(=O)CON)CC4)cc3)c2n1` [AXC-956, (S)—N-(2-(1-(4-((6-amino-2-butoxy-8-oxo-7,8-dihydro-9H-purin-9-yl)methyl)benzyl)piperidin-4-yl)ethyl)-2-(2-(aminooxy)acetamido)-3-(4-(((2S,3R,4S,5S,6R)-3,4,5-trihydroxy-6-(hydroxymethyl)tetrahydro-2H-pyran-2-yl)oxy)phenyl)propanamide] was tested, and the EC50 [2, 6] was 158 nM.
`CCCCOc1nc(N)c2[nH]c(=O)n(Cc3ccc(CN4CCC(CCN)CC4)cc3)c2n1` [AXC-878, 6-amino-9-(4-((4-(2-aminoethyl)piperidin-1-yl)methyl)benzyl)-2-butoxy-7H-purin-8(9H)-one] gave an EC50 [2, 7] of 50.4 nM.
`CCCCc1nc2c(N)nc3ccccc3c2n1CCCCNC(=O)c1ccc(N(C)C)cc1` [AXC-740, N-(4-(4-amino-2-butyl-1H-imidazo[4,5-c]quinolin-1-yl)butyl)-4-(dimethylamino)benzamide] gave an EC50 ([2]; Table 10, read-out: TLR7 EC50) of 116 nM.
`CCCCOc1nc(N)c2[nH]c(=O)n(Cc3ccc(CN4CCC(CCNC(=O)[C@@H](N)CCCNC(=N)N)CC4)cc3)c2n1` [AXC-892, (S)-2-amino-N-(2-(1-(4-((6-amino-2-butoxy-8-oxo-7H-purin-9(8H)-yl)methyl)benzyl)piperidin-4-yl)ethyl)-5-guanidinopentanamide] showed an EC50 ([2]; Table 13, TLR7, read-out: EC50) of 73 nM.
`CCCCc1nc2c(N)nc3ccccc3c2n1CCCCNC(=O)c1cc(F)c(NC(=O)[C@H](CCCNC(N)=O)NC(=O)[C@@H](NC(=O)CCOCCON)C(C)C)c(F)c1` [AXC-802, N-(4-(4-amino-2-butyl-1H-imidazo[4,5-c]quinolin-1-yl)butyl)-4-((S)-2-((S)-2-(3-(2-(aminooxy)ethoxy)propanamido)-3-methylbutanamido)-5-ureidopentanamido)-3,5-difluorobenzamide] was tested, and the EC50 ([2]; Table 10, read-out: TLR7 EC50) was > 5000 nM.
With `CCCCOc1nc(N)c2[nH]c(=O)n(Cc3ccc(CN4CCC(CCNC(=O)c5ccc(N)c(OC)c5)CC4)cc3)c2n1` [AXC-895, 4-amino-N-(2-(1-(4-((6-amino-2-butoxy-8-oxo-7H-purin-9(8H)-yl)methyl)benzyl)piperidin-4-yl)ethyl)-3-methoxybenzamide] the “TLR7 activity (comparison in words)” value [2] was “highest potency among different payloads tested” and the EC50 ([2]; Table 13, TLR7, read-out: EC50) was 11 nM.
Work on `CCCCOc1nc(N)c2[nH]c(=O)n(Cc3ccc(CN4CCC(CCNC(=O)[C@H](CCCCNC(=O)CCOCCOCCOCCOCCOCCOCCOCCOCCOCCOCCOCCOCCOCCOCCOCCOCCOCCOCCOCCOCCOCCOCCOCCOC)NC(=O)CON)CC4)cc3)c2n1` [AXC-949, (S)—N-(2-(1-(4-((6-amino-2-butoxy-8-oxo-7,8-dihydro-9H-purin-9-yl)methyl)benzyl)piperidin-4-yl)ethyl)-2-(2-(aminooxy)acetamido)-6-PEG24-amidohexanamide] yielded an EC50 [2, 6] of 760 nM.
Work on `CCCCOc1nc(N)c2[nH]c(=O)n(Cc3ccc(CN4CCC(CCNC(=O)[C@H](CCCCNC(=O)CON)NC(=O)[C@H](C)NC(=O)[C@@H](N)C(C)C)CC4)cc3)c2n1` [AXC-923, (S)—N-(2-(1-(4-((6-amino-2-butoxy-8-oxo-7,8-dihydro-9H-purin-9-yl)methyl)benzyl)piperidin-4-yl)ethyl)-2-((S)-2-((S)-2-amino-3-methylbutanamido)propanamido)-6-(2-(aminooxy)acetamido)hexanamide] yielded an EC50 ([2]; Table 18, TLR7, PEG shielding, read-out: EC50) of 434 nM.
In the case of `CCCCc1nc2c(N)nc3ccccc3c2n1CCCCNC(=O)c1cc(F)c(N)c(F)c1` [AXC-779, 4-amino-N-(4-(4-amino-2-butyl-1H-imidazo[4,5-c]quinolin-1-yl)butyl)-3,5-difluorobenzamide], the EC50 ([2]; Table 10, read-out: TLR7 EC50) is reported as 242 nM.
`CCCCOc1nc(N)c2[nH]c(=O)n(Cc3ccc(CN4CCC(CCNC(=O)[C@H](CCCCNC(=O)CCOCCOCCOCCOCCOCCOCCOCCOCCOCCOCCOCCOCCOCCOCCOCCOCCOCCOCCOCCOCCOCCOCCOCCOCCOCCOCCOCCOCCOCCOCCOCCOCCOCCOCCOCCOCCOC)NC(=O)CON)CC4)cc3)c2n1` [AXC-951, (S)—N-(2-(1-(4-((6-amino-2-butoxy-8-oxo-7,8-dihydro-9H-purin-9-yl)methyl)benzyl)piperidin-4-yl)ethyl)-2-(2-(aminooxy)acetamido)-6-(PEG37)hexanamide] gave an EC50 [2, 6] of 842 nM.
`CCCCNc1nc(N)c2[nH]c(=O)n(Cc3ccc(OCCN(C)C)nc3)c2n1` [DSR-6434, reference compound] was tested, and the EC50 ([2]; Table 10, read-out: TLR7 EC50) was 9.2 nM, the EC50 [2, 7] was 15.8 nM and the EC50 [2, 3] was 14.8 nM. For the same compound, the EC50 ([2]; Table 13, TLR7, read-out: EC50) was 9 nM, the EC50 ([2]; Table 14, read-out: TLR7 EC50) was 10.5 nM and the EC50 [2, 4] was 15 nM. It also gave an EC50 [2, 5] of 11 nM and an EC50 [2, 6] of 14 nM.
With `CCCCOc1nc(N)c2[nH]c(=O)n(Cc3ccc(CN4CCC(CCON)CC4)cc3)c2n1` [AXC-979, 6-amino-9-(4-((4-(2-(aminooxy)ethyl)piperidin-1-yl)methyl)benzyl)-2-butoxy-7H-purin-8(9H)-one] the EC50 [2, 6] was 21.7 nM.
With `CCCCNc1nc(N)c2[nH]c(=O)n(Cc3ccc(NCCN(C)CCNC(=O)CCOCCOCCOCCOCCON)nc3)c2n1` [AXC-869, NH2O-PEG3-Pr-(6-amino-9-((6-(2-((2-aminoethyl)(methyl)amino)ethylamino)pyridin-3-yl)methyl)-2-(butylamino)-7H-purin-8(9H)-one)acetamide] the EC50 [2, 3] was > 10000 nM.
With `CCCCOc1nc(N)c2[nH]c(=O)n(Cc3ccc(CN4CCCCC4)cc3)c2n1` [AXC-894, 6-amino-2-butoxy-9-(4-(piperidin-1-ylmethyl)benzyl)-7H-purin-8(9H)-one] the EC50 ([2]; Table 13, TLR7, read-out: EC50) was 1670 nM, the EC50 ([2]; Table 14, read-out: TLR7 EC50) was 2.1 nM and the EC50 ([2]; text to Table 14, TLR7, read-out: EC50) was < 10 nM.
In the case of `CCCCc1nc2c(N)nc3cccnc3c2n1CCCCNC(=O)c1ccc(N(C)C)cc1` [AXC-743, N-(4-(4-amino-2-butyl-1H-imidazo[4,5-c][1,5]naphthyridin-1-yl)butyl)-4-(dimethylamino)benzamide], the EC50 ([2]; Table 10, read-out: TLR7 EC50) is reported as 56.1 nM.
